Results: patent publication US8648113B2, “Mixture and compounds from mycelia of Antrodia camphorata and use thereof” (Simpson Biotech Co., Ltd., priority 2004, dated 2014)
Values joined by “and” are separate entries in the source; they are usually repeats but may differ in a detail not shown here. Equal values may be shown once. Marks after values point to notes of the source that are not given here.

Experiments:
[1] = system: Wistar derived male rats, D-galactosamine induced hepatic injury; experiment: Hepatic Injury, D-Galactosamine in rats; type: in vivo, rat; settings: 300 mg/kg × 3 PO (Guanine, reference)
Description: Groups of 5 Wistar derived male rats weighing 200±20 g were used. Each animal was treated with a single injection of D-galactosamine (500 mg/kg, IP) Test substance was administered orally at 0.5 hour before and 4 hours as well as 8 hours after D-galactosamine administration and animals were sacrificed 24 hours later. […] Reduction in ALT or AST activity by 30 percent or more (30%), relative to the vehicle treated control animal indicates significant protection.
Test substance and vehicle were administered orally at 0.5 hour before and 4, 8 hours after a single dose of galactosamine (500 mg/kg, IP). The rats were sacrificed 24 hours after galactosamine injection and the ALT and AST values were determined A reduction of 30% in the ALT and AST relative to the vehicle group is considered significant. • 3. Winter et al., Inflammation, Carrageenan, Proc. Soc.

[2] = system: LLC (Lewis lung carcinoma) cell line; experiment: Cytotoxic assay, in vitro LLC tumor cell assay (SRB method); settings: for 50% Growth Inhibition (ED50): SRB method
[3] = system: ICR derived male mice on high fat diet; experiment: Cholesterol, Serum (Total, HDL, Total/HDL Ratio), Diet-Induced in mice; type: in vivo, mouse; settings: 100 mg/kg × 3 PO
Description: Groups of 5 ICR derived male mice weighing 22±2 g were kept on a high fat diet (g/100 g: coconut oil, 8; cholesterol, 1.0; cholic acid, 0.3; lard 2; standard chow 88.7) for 7 days to induce hypercholesterolemia. Test substance was administered orally on days 5, 6 and 7. After fasting overnight, serum was obtained from each mouse and assayed for total cholesterol (Total), high density lipoprotein (HDL) and percent change in Total/HDL. A decrease of 20 percent or more (20%) in serum Total or increase of 20 percent or more (≧20%) in serum HDL or decrease of 40% or more (≧40%) in the Total/HDL ratio relative to vehicle treated control animals is considered significant.
Vehicle, test substance or reference positive compound was administered orally (PO) on days 5, 6 and 7 after being fed a high cholesterol diet. Twenty-four hours after the third dose, the overnight-fasted test animals were sacrificed for assessing serum total cholesterol (Total) and high density lipoprotein (HDL). Decrease of 20 percent or more (20%) in serum Total or increase of 20 percent or more (20%) in serum HDL or decrease of 40% or more (40%) in the Total/HDL ratio is considered significant. • 2. Hepatic Injury, D-Galactosamine (Wrobel et al., J. Med. Chem. 41: 1084, 1998)

[4] = system: B16-F0 murine melanoma cells; experiment: Tumor, Syngeneic, Melanoma, B16-F0 Cell in C57BL/6J mice; settings: B16-F0 in C57BL/6J mice, 2 mg/kg × 6 IP; for Survival Time, Days of Post-treatment: monitored to day 45
[5] = system: Long Evans derived rats, carrageenan-induced paw edema; experiment: Inflammation, Carrageenan in rats (hind paw edema); type: in vivo, rat; settings: 150 mg/kg PO; for Paw Volume Diff: R.P. minus L.P.; for Paw Volume L.P.: left (not injected) hindpaw; for Paw Volume R.P.: right (injected) hindpaw, 3 hours
Description: Hind paw edema, as a measure of inflammation, was recorded 3 hours after carrageenan administration using a plethysmometer with water cell (25 mm diameter). Reduction of hind paw edema by 30 percent or more (30%) indicates significant acute anti-inflammatory activity. […] Reduction of hindpaw edema by 30 percent or more (30%), shown in parenthesis, indicates significant acute anti-inflammatory activity. • 4. […] Anticancer Research 19: 1027-1032, 1999)

[6] = system: Wistar derived male or female rats; experiment: Cholinergic Agonism, Central/Peripheral in rats (chewing, salivation); type: in vivo, rat; parameters: key to Peripheral: Salivation: +: exhibiting salivation; settings: 30 mg/kg IP
[7] = Ave. of 3 rats (Tables 12 and 13: two experiments), 150 mg/kg
[8] = individual rats (Tables 12 and 13: two experiments), 150 mg/kg
[9] = 30-60 min after dosing, individual animals
[10] = positive in 2 or more of 3 = activity

## Nc1nc2nc[nH]c2c(=O)[nH]1 [Guanine]
[1]; individual rats, 300 mg/kg
  Serum ALT: 508 U/L and 532 U/L and 412 U/L and 436 U/L and 636 U/L
  Serum AST: 656 U/L and 912 U/L and 776 U/L and 652 U/L and 1028 U/L
[1]; relative to vehicle
  Serum ALT Dec. %: (34) %
  Serum AST Dec. %: (33) %

## COc1cccc2c1C(=O)c1c(O)c3c(c(O)c1C2=O)C[C@@](O)(C(=O)CO)C[C@@H]3O[C@H]1C[C@H](N)[C@H](O)[C@H](C)O1 [Adriamycin]
[2]
  50% Growth Inhibition (ED50): 0.14 µg/mL

## CC(C)(Oc1ccc(CCNC(=O)c2ccc(Cl)cc2)cc1)C(=O)O [Benzafibrate]
[3]; Ave. of 5 mice
  HDL Ave.: 113
  Total (serum total cholesterol) Ave.: 228
  Total/HDL Ave.: 2.02
[3]; individual mice, 100 mg/kg
  HDL Indiv.: 91 and 120 and 133 and 123 and 97
  Total (serum total cholesterol) Indiv.: 230 and 214 and 225 and 231 and 242
  Total/HDL Indiv: 2.53 and 1.78 and 1.69 and 1.88 and 2.49
[3]; relative to vehicle
  HDL % Dce: (43) %
  Total % Dce: (37) %
  Total/HDL % Dce: (56) %

## CO[C@@]12[C@H](COC(N)=O)C3=C(C(=O)C(C)=C(N)C3=O)N1C[C@@H]1N[C@@H]12 [Mitomycin]
[4]
  Survival Time T/C (%): 125* %
  Tumor Weight T/C(%), Day 1: 100%
  Tumor Weight T/C(%), Day 8: 0* %
  Tumor Weight T/C(%), Day 11: 16* %
  Tumor Weight T/C(%), Day 15: 27* %
  Tumor Weight T/C(%), Day 18: 32* %
  Tumor Weight T/C(%), Day 22: 25* %
[4]; Mean ± SEM
  Body Weight, Day 1: 21.4 ± 1.1 g
  Body Weight, Day 8: 22.2 ± 0.8 g
  Body Weight, Day 11: 22.0 ± 1.1 g
  Body Weight, Day 15: 23.0 ± 1.0 g
  Body Weight, Day 18: 24.0 ± 1.1 g
  Body Weight, Day 22: 26.3 ± 1.9 g
  Tumor Weight, Day 1: 0 mg
  Tumor Weight, Day 8: 0 ± 0 mg
  Tumor Weight, Day 11: 34 ± 15 mg
  Tumor Weight, Day 15: 119 ± 44 mg
  Tumor Weight, Day 18: 391 ± 142 mg
  Tumor Weight, Day 22: 587 ± 260 mg
  Survival Time, Days of Post-treatment: 34.0 ± 4.7 days
[4]; individual mice
  Body Weight, Day 8: 20 g
  Body Weight, Day 15: 20 g
  Body Weight, Day 22: 30 g
  Tumor Weight, Day 1: 0 mg
  Tumor Weight, Day 8: 0 mg
[4]; individual mice, 2 mg/kg
  Body Weight, Day 1: 25 g and 22 g (2×) and 19 g (2×)
  Body Weight, Day 8: 25 g and 22 g (2×) and 21 g
  Body Weight, Day 11: 26 g and 22 g (2×) and 21 g and 19 g
  Body Weight, Day 15: 25 g (2×) and 21 g and 24 g
  Body Weight, Day 18: 24 g and 27 g and 22 g and 26 g and 21 g
  Body Weight, Day 22: 27 g (2×) and 21 g and Died
  Tumor Weight, Day 11: 0 mg (2×) and 64 mg and 68 mg and 41 mg
  Tumor Weight, Day 15: 36 mg and 136 mg and 0 mg and 213 mg and 207 mg
  Tumor Weight, Day 18: 256 mg and 849 mg and 0 mg and 525 mg and 327 mg
  Tumor Weight, Day 22: 437 mg and 1248 mg and 0 mg and 663 mg and Died
  Survival Time, Days of Post-treatment: 45^a day (2×) and 28 day and 30 day and 22 day

## CC(=O)Oc1ccccc1C(=O)O [Aspirin]
[5]; [7]
  Paw Volume Diff: 50 ×0.01 ml and 52 ×0.01 ml
  Paw Volume R.P.: 154 ×0.01 ml and 155 ×0.01 ml
[5]; [8]
  Paw Volume Diff: 50 ×0.01 ml and 44 ×0.01 ml and 57 ×0.01 ml and 43 ×0.01 ml and 48 ×0.01 ml and 65 ×0.01 ml
  Paw Volume L.P.: 102 ×0.01 ml and 106 ×0.01 ml and 103 ×0.01 ml and 101 ×0.01 ml and 104 ×0.01 ml
  Paw Volume R.P.: 152 ×0.01 ml and 146 ×0.01 ml and 163 ×0.01 ml and 149 ×0.01 ml and 169 ×0.01 ml
[5]; Ave. of 3 rats (Tables 12 and 13: two experiments)
  Paw Volume L.P.: 103 ×0.01 ml

## COC(=O)C1=CCCN(C)C1 [Arecoline-HBR]
[6]; [9]
  Central: Chewing: + (exhibiting more than 10 seconds of chewing behavior (mouth and/or tongue movements) measured cumulatively)
  Peripheral: Salivation: +
[6]; [10]
  Central: Score (positive animals of 3): (3/3)
  Peripheral: Score (positive animals of 3): (3/3)

## CC(C)=CCOc1ccc(C2=C(CC(C)C)C(=O)NC2=O)cc1 [Compound 2, 3-Isobutyl-4-[4-(3-methyl-2-butenyloxy)phenyl]-1H-pyrrole-2,5-dione]
[2]
  cytotoxic activity (in words): cytotoxic
  50% Growth Inhibition (ED50): 3.6 µg/mL
